Values after ≈ are worked out from the molar mass of the structure shown. Values belong to the compound of their own block, whether it stands above or below them.
How the values were obtained:
Mus musculus [1] = experiment: Antifibrotic activity against bleomycin-induced lung fibrosis in male C57Bl/6 mouse model assessed as reduction in ashcroft score at 50 mg/kg, po bid administered from day 7 to 21 relative to control; type: functional; parameters: scale not given: the % may be the effect or the level left; conditions: time 15 day
[2] = molecular target: T1, Solute carrier organic anion transporter family member 1B1 (Homo sapiens, UniProt Q9Y6L6); experiment: Inhibition of human OATP1B1 in HEK293 cells; type: cell-based
T1 sequence (Q9Y6L6 whole entry): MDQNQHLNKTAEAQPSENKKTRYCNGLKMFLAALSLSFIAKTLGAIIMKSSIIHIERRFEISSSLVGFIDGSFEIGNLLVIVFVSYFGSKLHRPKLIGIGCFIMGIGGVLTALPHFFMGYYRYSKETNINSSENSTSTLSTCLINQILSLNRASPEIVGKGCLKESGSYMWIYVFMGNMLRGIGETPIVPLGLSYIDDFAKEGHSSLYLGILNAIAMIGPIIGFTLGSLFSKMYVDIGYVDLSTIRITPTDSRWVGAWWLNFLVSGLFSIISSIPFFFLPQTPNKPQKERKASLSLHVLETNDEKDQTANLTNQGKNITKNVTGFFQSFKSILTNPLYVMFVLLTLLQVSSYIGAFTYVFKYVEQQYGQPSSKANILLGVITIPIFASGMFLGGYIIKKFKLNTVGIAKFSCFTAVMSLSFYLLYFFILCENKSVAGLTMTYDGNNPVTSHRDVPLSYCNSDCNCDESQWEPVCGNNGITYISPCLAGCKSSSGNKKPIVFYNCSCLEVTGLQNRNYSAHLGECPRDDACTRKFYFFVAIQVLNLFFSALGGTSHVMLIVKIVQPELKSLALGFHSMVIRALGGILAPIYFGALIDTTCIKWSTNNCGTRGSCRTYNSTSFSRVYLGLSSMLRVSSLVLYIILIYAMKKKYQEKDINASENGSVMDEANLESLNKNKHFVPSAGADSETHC

Bile salt export pump = Bile salt export pump (Homo sapiens, UniProt O95342); experiment: Inhibition of BSEP in cryopreserved sandwich-cultured human hepatocytes by measuring reduction in TCA biliary clearance using taurocholic acid as substrate; type: cell-based, Hepatocyte
[3] = molecular target: Phosphatidylcholine translocator ABCB4 (Homo sapiens, UniProt P21439); experiment: Inhibition of MDR3 in human hepatocytes in the presence of TCA incubated for 3 hrs by LC-MS/MS; type: cell-based, Hepatocyte
[4] = molecular target: T2, Solute carrier organic anion transporter family member 1B3 (Homo sapiens, UniProt Q9NPD5); experiment: Inhibition of human OATP1B3 in HEK293 cells; type: cell-based
T2 sequence (Q9NPD5 whole entry): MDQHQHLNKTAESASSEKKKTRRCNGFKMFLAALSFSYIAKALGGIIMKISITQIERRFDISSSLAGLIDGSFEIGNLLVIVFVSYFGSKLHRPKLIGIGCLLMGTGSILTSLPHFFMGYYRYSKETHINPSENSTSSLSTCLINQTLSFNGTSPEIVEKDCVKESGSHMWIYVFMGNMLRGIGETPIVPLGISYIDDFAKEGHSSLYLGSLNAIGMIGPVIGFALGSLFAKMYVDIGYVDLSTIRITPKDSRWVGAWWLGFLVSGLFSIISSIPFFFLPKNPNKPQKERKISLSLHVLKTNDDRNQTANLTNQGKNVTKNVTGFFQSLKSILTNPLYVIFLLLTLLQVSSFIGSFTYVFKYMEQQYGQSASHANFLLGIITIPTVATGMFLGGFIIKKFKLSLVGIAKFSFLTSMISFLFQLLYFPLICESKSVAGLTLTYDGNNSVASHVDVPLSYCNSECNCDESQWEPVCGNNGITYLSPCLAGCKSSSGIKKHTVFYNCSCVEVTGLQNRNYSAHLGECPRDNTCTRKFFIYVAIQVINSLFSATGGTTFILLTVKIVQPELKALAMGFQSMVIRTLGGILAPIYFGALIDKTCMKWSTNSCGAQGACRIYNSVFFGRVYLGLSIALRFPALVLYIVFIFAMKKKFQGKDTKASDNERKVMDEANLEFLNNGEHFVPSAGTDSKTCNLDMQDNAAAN

[5] = molecular target: ATP-binding cassette sub-family C member 3 (Homo sapiens, UniProt O15438); experiment: Inhibition of MRP3 (unknown origin) in presence of ATP by membrane vesicular transport assay; type: cell membranes, Membrane vesicle
[6] = molecular target: ATP-binding cassette sub-family C member 2 (Homo sapiens, UniProt Q92887); experiment: Inhibition of MRP2 (unknown origin) in presence of ATP by membrane vesicular transport assay; type: cell membranes, Membrane vesicle
[7] = molecular target: T3, ATP-binding cassette sub-family C member 4 (Homo sapiens, UniProt O15439); experiment: Inhibition of MRP4 (unknown origin) in presence of ATP by membrane vesicular transport assay; type: cell membranes, Membrane vesicle
T3 sequence (O15439 whole entry): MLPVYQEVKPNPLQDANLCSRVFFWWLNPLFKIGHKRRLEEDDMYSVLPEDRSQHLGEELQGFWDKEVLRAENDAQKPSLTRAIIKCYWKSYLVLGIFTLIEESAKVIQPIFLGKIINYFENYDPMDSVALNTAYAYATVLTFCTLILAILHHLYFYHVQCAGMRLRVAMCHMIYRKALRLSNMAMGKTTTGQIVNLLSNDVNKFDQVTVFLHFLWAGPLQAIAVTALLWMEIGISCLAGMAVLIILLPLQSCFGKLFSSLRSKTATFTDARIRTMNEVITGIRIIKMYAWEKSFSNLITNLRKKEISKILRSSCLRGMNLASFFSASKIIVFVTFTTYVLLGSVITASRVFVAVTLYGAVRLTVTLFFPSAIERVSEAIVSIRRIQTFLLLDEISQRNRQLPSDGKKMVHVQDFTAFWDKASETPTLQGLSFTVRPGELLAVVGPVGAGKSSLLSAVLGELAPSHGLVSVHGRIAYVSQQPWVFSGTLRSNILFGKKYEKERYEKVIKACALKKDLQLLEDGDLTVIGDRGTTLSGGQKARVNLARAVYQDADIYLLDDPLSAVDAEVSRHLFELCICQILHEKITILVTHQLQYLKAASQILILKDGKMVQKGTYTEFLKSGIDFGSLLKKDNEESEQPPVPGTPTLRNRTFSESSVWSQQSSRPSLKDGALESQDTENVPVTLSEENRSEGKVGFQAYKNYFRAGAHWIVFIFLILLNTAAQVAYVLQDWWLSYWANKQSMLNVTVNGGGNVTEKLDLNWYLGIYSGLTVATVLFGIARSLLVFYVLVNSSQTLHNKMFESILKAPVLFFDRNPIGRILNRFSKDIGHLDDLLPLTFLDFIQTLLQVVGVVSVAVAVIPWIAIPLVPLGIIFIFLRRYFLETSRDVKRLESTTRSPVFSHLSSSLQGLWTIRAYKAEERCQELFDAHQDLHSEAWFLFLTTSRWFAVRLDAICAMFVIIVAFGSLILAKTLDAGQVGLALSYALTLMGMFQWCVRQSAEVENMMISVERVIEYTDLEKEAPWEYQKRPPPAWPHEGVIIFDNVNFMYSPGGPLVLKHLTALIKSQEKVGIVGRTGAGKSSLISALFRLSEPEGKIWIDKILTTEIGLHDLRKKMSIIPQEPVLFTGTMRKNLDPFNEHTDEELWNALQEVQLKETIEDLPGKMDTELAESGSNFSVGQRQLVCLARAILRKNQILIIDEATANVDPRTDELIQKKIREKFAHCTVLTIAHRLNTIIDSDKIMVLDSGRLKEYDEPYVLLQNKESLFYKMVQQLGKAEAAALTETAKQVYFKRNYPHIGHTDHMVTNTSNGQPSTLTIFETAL

[8] = Unbound Cmax in female C57BL/6J mouse plasma at 30 mg/kg, po measured after 24 hrs by UPLC-MS/MS analysis; type: ADME, organism-based; conditions: in vivo
[9] = molecular target: Lysophosphatidic acid receptor 1 (Homo sapiens, UniProt Q92633); experiment: Antagonist activity at human LPA1 expressed in CHO cells incubated for 30 mins by FLIPR-based calcium mobilization assay
[10] = Unbound AUClast in female C57BL/6J mouse lung at 30 mg/kg, po measured after 24 hrs by UPLC-MS/MS analysis; type: ADME, organism-based; conditions: in vivo
[11] = Antiproliferative activity against LPA treated human HLF cells preincubated for 1 hr followed by LPA stimulation and measured after 24 hrs by BrdU assay; conditions: read-out: pIC50 (converted)
[12] = Unbound AUClast in female C57BL/6J mouse plasma at 30 mg/kg, po measured after 24 hrs by UPLC-MS/MS analysis; type: ADME, organism-based; conditions: in vivo
[13] = Oral bioavailability in female C57BL/6J mouse at 2 mg/kg, iv measured after 24 hrs by UPLC-MS/MS analysis; type: ADME, organism-based; conditions: in vivo
[14] = Unbound Cmax in female C57BL/6J mouse lung at 30 mg/kg, po measured after 24 hrs by UPLC-MS/MS analysis; type: ADME, organism-based; conditions: in vivo
[15] = Half life in female C57BL/6J mouse at 2 mg/kg, iv measured after 24 hrs by UPLC-MS/MS analysis; type: ADME, organism-based; conditions: in vivo
[16] = Total Cmax in female C57BL/6J mouse lung at 30 mg/kg, po measured after 24 hrs by UPLC-MS/MS analysis; type: ADME, organism-based
[17] = Total Cmax in female C57BL/6J mouse plasma at 30 mg/kg, po measured after 24 hrs by UPLC-MS/MS analysis; type: ADME, organism-based
[18] = Total AUClast in female C57BL/6J mouse plasma at 30 mg/kg, po measured after 24 hrs by UPLC-MS/MS analysis; type: ADME, organism-based; conditions: in vivo
[19] = Tlast in female C57BL/6J mouse plasma at 30 mg/kg, po measured after 24 hrs by UPLC-MS/MS analysis; type: ADME, organism-based; conditions: in vivo
[20] = molecular target: Lysophosphatidic acid receptor 1 (Mus musculus, UniProt P61793); experiment: Antagonist activity at mouse LPA1 transfected in human HeLa cells incubated for 30 mins by FLIPR-based calcium mobilization assay; type: cell-based
BSEP = BSEP (Homo sapiens, UniProt O95342); experiment: Inhibition of BSEP in cryopreserved sandwich-cultured human hepatocytes by measuring reduction in TCA biliary clearance using taurocholic acid as substrate at 50 uM relative to control; type: cell-based, Hepatocyte; conditions: cryopreserved sandwich-cultured hepatocytes, probe taurocholic acid
Mus musculus [21] = experiment: Inhibition of LPA-stimulated histamine release in male CD1 mouse plasma assessed as effective dose administered as po dose pretreated for 30 mins followed by LPA addition measured after 2 mins by enzyme immunoassay; type: functional; conditions: 32 min
[22] = Clearance in female C57BL/6J mouse at 2 mg/kg, iv measured after 24 hrs by UPLC-MS/MS analysis; type: ADME, organism-based; conditions: in vivo
[23] = Total AUClast in female C57BL/6J mouse lung at 30 mg/kg, po measured after 24 hrs by UPLC-MS/MS analysis; type: ADME, organism-based; conditions: in vivo
[24] = Aqueous solubility of the compound at pH 7.4; type: physicochemical; conditions: buffer
[25] = Tlast in female C57BL/6J mouse lung at 30 mg/kg, po measured after 24 hrs by UPLC-MS/MS analysis; type: ADME, organism-based; conditions: in vivo
[26] = Metabolic stability in human liver microsomes assessed as intrinsic clearance measured per mg of protein at 0.5 uM measured upto 45 mins in presence of NADPH regenerating system by HPLC-MS/MS analysis; type: ADME, Microsome; conditions: read-out: CLH
[27] = Lipophilicity, logD of compound at pH 7.4 by chromatographic hydrophobicity index method; type: physicochemical; conditions: buffer
[28] = Metabolic stability in female C57BL/6J mouse liver microsomes assessed as intrinsic clearance measured per mg of protein at 0.5 uM measured upto 45 mins in presence of NADPH regenerating system by HPLC-MS/MS analysis; type: ADME, Microsome; conditions: read-out: CLH
[29] = Volume of distribution at steady state in female C57BL/6J mouse at 2 mg/kg, iv measured after 24 hrs by UPLC-MS/MS analysis; type: ADME, organism-based; conditions: in vivo, read-out: Vdss

Chain of Bile salt export pump (O95342 whole entry): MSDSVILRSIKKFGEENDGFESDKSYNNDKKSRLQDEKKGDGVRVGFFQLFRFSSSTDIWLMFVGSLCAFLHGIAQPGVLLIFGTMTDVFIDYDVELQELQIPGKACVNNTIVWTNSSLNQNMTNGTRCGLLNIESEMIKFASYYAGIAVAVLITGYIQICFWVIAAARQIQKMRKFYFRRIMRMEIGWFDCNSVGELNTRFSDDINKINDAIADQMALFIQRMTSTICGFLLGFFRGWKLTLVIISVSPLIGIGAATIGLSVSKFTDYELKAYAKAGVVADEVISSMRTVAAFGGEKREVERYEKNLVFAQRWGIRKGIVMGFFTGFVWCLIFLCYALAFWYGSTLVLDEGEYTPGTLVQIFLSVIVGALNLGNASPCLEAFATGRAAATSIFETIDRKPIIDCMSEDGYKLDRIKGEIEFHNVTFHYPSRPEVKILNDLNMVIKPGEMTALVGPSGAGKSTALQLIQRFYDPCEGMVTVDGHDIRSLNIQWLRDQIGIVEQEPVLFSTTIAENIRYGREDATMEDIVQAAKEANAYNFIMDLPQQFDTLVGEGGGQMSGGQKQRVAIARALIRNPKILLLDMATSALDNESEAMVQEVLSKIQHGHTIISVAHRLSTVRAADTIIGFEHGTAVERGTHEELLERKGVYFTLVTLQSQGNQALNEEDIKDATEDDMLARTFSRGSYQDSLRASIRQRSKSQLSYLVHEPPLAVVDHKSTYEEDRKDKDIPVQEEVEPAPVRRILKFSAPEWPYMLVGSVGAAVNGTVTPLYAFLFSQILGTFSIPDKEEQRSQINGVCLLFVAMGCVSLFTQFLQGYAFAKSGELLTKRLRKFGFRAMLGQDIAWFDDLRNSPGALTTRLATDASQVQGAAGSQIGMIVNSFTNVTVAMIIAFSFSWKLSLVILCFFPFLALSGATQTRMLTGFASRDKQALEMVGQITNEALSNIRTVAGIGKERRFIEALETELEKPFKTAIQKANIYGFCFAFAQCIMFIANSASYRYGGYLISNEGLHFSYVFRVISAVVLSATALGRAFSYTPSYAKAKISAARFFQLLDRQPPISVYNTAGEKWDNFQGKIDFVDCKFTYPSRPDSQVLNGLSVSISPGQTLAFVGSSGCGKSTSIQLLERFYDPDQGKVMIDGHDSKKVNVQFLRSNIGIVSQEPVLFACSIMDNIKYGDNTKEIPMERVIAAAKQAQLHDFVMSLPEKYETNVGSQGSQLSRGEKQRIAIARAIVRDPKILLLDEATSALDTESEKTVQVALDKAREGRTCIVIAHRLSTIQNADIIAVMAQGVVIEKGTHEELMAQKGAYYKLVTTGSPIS
Chain of Lysophosphatidic acid receptor 1 (Homo sapiens, UniProt Q92633) (Q92633 whole entry): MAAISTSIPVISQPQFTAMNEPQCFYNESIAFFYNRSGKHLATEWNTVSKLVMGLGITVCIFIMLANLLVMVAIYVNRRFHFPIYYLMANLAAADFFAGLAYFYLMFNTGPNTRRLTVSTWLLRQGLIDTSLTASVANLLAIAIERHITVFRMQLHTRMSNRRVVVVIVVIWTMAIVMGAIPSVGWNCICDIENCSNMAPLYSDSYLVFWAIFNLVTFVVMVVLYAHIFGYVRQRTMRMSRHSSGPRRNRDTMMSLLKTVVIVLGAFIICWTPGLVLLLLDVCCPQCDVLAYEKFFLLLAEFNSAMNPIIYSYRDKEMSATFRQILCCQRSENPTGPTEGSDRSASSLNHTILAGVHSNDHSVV
Chain of Phosphatidylcholine translocator ABCB4 (P21439 whole entry): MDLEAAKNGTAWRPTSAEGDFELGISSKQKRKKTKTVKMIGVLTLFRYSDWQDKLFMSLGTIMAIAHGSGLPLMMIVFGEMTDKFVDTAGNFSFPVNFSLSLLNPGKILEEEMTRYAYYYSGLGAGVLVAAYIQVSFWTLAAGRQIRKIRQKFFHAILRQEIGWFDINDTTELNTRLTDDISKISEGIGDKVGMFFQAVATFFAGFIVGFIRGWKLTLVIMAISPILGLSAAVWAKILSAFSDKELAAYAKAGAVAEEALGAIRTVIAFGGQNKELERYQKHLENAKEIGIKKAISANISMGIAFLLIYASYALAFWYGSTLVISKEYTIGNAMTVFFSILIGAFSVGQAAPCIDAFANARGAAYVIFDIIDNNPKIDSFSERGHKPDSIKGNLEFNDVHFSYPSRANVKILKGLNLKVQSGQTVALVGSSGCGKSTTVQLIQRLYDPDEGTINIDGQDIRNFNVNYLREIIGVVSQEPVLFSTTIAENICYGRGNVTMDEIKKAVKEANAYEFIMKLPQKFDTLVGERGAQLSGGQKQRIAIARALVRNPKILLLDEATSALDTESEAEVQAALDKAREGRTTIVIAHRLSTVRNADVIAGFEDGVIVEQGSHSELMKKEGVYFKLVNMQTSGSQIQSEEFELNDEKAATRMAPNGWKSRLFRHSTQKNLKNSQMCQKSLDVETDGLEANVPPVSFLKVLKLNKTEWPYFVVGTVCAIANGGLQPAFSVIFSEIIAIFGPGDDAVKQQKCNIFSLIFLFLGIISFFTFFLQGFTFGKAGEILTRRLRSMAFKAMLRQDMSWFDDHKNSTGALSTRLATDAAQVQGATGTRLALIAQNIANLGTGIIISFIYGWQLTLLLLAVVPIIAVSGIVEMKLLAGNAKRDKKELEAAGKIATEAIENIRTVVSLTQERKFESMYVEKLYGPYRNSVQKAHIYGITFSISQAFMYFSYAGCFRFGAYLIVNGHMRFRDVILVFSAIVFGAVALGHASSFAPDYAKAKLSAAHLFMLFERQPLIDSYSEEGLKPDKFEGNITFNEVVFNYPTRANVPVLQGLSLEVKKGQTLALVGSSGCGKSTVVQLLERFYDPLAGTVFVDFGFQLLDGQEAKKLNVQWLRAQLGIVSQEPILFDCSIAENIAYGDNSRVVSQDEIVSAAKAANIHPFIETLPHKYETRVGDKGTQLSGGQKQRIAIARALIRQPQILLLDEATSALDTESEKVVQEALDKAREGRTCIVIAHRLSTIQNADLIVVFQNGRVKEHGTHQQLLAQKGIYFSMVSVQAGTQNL
Chain of ATP-binding cassette sub-family C member 2 (Q92887 whole entry): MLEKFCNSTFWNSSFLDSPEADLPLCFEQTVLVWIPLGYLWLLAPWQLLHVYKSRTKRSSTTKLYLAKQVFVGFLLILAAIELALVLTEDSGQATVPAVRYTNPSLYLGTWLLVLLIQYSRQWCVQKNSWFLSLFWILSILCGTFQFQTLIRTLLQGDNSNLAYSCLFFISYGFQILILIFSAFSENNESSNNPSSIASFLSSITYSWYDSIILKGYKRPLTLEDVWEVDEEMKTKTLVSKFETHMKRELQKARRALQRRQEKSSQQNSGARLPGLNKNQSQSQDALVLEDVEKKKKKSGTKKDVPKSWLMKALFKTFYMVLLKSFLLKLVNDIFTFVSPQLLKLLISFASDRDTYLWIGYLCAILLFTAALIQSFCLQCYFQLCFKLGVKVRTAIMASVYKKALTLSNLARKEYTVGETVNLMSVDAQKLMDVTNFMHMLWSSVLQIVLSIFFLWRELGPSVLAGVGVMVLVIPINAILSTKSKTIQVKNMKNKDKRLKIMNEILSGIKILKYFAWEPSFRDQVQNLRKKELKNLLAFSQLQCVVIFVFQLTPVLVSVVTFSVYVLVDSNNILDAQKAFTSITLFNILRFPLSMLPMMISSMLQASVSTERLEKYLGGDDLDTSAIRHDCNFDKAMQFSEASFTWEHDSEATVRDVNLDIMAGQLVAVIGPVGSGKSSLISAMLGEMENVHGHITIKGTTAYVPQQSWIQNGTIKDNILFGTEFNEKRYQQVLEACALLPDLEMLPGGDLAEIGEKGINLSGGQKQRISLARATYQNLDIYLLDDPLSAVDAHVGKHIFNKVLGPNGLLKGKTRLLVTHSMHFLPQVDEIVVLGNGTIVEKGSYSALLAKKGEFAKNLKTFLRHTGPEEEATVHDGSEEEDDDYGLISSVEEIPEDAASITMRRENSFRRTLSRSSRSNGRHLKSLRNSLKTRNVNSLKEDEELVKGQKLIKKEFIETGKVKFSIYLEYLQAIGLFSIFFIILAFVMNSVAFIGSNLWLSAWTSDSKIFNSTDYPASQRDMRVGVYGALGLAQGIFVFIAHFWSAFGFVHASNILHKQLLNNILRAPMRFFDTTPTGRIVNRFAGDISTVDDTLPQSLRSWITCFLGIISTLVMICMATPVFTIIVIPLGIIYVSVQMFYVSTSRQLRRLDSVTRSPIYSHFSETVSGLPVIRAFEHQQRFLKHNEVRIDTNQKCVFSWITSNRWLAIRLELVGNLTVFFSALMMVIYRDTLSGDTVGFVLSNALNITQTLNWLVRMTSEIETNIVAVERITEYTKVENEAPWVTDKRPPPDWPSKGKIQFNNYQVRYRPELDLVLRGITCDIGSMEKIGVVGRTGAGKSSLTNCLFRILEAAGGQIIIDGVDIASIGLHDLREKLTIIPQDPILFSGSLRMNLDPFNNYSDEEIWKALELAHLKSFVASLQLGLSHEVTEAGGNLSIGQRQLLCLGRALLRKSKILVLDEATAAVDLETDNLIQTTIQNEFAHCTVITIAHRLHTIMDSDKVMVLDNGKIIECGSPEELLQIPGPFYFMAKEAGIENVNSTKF
Chain of BSEP (O95342 whole entry): as the sequence (O95342 whole entry) above
Chain of Lysophosphatidic acid receptor 1 (Mus musculus, UniProt P61793) (P61793 whole entry): as the sequence (Q92633 whole entry) above, with I4A, I8S, P22Q, H40Y, I61V, E193D, N194H, I269V, S331N, T335N counted along it

SMILES: COC(=O)c1ccc2c(c1)NC(=O)/C2=C(\Nc1ccc(N(C)C(=O)CN2CCN(C)CC2)cc1)c1ccccc1 [NINTEDANIB]
Activity (Mus musculus [1]): 23%

IC50 [2]: 158 nM | IC50 [3]: 7.94 µM | IC50 [4]: 631 nM | IC50 [5]: 20 µM | IC50 [6]: 50.1 µM | IC50 [7]: 6.31 µM
SMILES: Cc1noc(-c2ccc(-c3ccc(C4(C(=O)O)CC4)cc3)cc2)c1NC(=O)O[C@H](C)c1ccccc1 [BMS-986020]
IC50 (Bile salt export pump): 2000 nM

fCmax [8]: 251 ng/mL | IC50 [9]: 31.6 nM | fAUClast [10]: 257 h/ng/mL | fAUClast [12]: 430 h/ng/mL | bioavailability [13]: 22% | fCmax [14]: 167 ng/mL | half-life [15]: 251 min | Cmax [16]: 2620 ng/mL | Cmax [17]: 3930 ng/mL | AUClast [18]: 6720 h/ng/mL | Tlast [19]: 8 h | IC50 [20]: 15.8 nM | clearance [22]: 17.1 mL/min/kg | AUClast [23]: 4040 h/ng/mL | solubility [24]: 318 µM (≈ 172 µg/mL) | Tlast [25]: 24 h | microsomal CLint at 0.5 µM [26]: 0.4 µL/min/mg | chromatographic logD [27]: 1.18 | microsomal CLint at 0.5 µM [28]: 2.7 µL/min/mg | Vd [29]: 2.1 L/kg
SMILES: Cc1nc(-c2nnn(C)c2NC(=O)O[C@H](C)c2ccccc2Cl)ccc1NC(=O)[C@H]1CCCC[C@@H]1C(=O)O
IC50 [11]: 37.2 nM | IC50 (Bile salt export pump): > 100000 nM | inhibition at 50 µM (BSEP): 16% | ED50 (Mus musculus [21]): 0.1 mg/kg

— ChEMBL document CHEMBL6153155, “Novel Cyclohexyl Amido Acid Antagonists of Lysophosphatidic Acid Type 1 Receptor for the Treatment of Pulmonary Fibrosis” (ACS Med Chem Lett, 2025)
